One experiment has as its target T1, RamR (Salmonella typhimurium, UniProt Q8ZR43).
T1 construct: expressed in transfected cells; host or cells: E. coli DH10B
In words: Biosensor response assay, wild-type RamR with Pramr-GFP reporter. It is filed as cell-based. Particulars: pReg-RamR + Pramr-GFP, upon induction. The source says:
The wild-type RamR sensor was constitutively expressed on one plasmid (pReg-RamR) in parallel with another plasmid bearing the regulator's cognate promoter upstream of the sfGFP gene (Pramr-GFP). […] To better understand this promiscuous binding activity, norbelladine was docked within the ligand binding pocket of RamR using GNINA 1.0 […], and a conformational pose was identified whereby the phenol moiety of norbelladine forms hydrogen bonds with S137 and T85, while the catechol moiety forms a hydrogen bond with K63.
The pReg-RamR and Pramr-GFP plasmids were co-transformed into DH10B cells, which were then plated on LB agar plates containing appropriate antibiotics. Three separate colonies were picked for each transformation and were grown overnight. The following day, 20 μL of each culture was then used to inoculate six separate wells in a 2-mL 96-deep-well plate (Corning, P-DW-20-C-S) sealed with an AeraSeal film (Excel Scientific) containing 900 μL LB medium, one for each test ligand and a solvent control. […] One hundred microliters of the cell resuspension for each condition was transferred to a 96-well microtiter plate (Corning, 3904), from which the fluorescence (excitation, 485 nm; emission, 509 nm) and absorbance (600 nm) were measured using the Tecan Infinite M1000 plate reader.

A further experiment has as its target T2, 4NB2.1 biosensor (Salmonella typhimurium, UniProt Q8ZR43, C134D/K63T/L66M/S137G).
T2 construct: expressed in transfected cells; host or cells: E. coli DH10B
In words: Dose response of the evolved 4NB2.1 biosensor to 4NB (fluorescence, RFU/OD). It is filed as cell-based, Escherichia coli. As to the method:
For sensor variant validation, the subcloned pReg-RamR vectors expressing the sensor variants were transformed into DH10B cells expressing Pramr-GFP. These cultures were then assayed, as described in Biosensor response assay, using eight different concentrations of the 4NB.
Glycerol stocks (20% glycerol) of strains containing the plasmids of interest were inoculated into 1 ml LB medium and grown overnight at 37° C. Twenty microliters of overnight culture was seeded into 900 μl LB medium containing ampicillin and chloramphenicol in a 2-ml 96-deep-well plate sealed with an AeraSeal film. Following growth at 37° C. and 250 r.p.m. for 2 h, cultures were induced with 100 μl of an LB medium solution containing appropriate antibiotics and the inducer molecule dissolved in 10 μl DMSO. Cultures were grown for an additional 4 h at 37° C. and 250 r.p.m. and subsequently centrifuged (3,500 g, 4° C., 10 min). Supernatant was removed, and cell pellets were resuspended in 1 ml PBS. The cell resuspension (100 μl) for each condition was transferred to a 96-well microtiter plate, from which the fluorescence (excitation, 485 nm; emission, 509 nm) and absorbance (600 nm) were measured using the Tecan Infinite M1000 plate reader.
Bar graphs, fluorescence and growth curves, dose-response functions were all plotted in Python 3.6.9 using Matplotlib. Dose-response curves and EC50 values were estimated by fitting to the Hill equation y=d+(a−d)xb(cb+xb)−1 (where y=output signal, b=Hill coefficient, x=ligand concentration, d=background signal, a=maximum signal and c=EC50), with the scipy.optimize.curve_fit library in Python.

SMILES strings stand for the structures.

T2 sequence (Q8ZR43 other isoform, or with tags, fused parts or gaps K63T/L66M/C134D/S137G): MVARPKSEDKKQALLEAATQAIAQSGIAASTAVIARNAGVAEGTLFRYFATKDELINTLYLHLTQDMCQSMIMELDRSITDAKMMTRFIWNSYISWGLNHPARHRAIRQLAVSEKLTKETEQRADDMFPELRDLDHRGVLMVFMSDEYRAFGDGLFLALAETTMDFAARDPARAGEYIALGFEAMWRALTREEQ
T1 sequence (Q8ZR43 2-193, added parts left off): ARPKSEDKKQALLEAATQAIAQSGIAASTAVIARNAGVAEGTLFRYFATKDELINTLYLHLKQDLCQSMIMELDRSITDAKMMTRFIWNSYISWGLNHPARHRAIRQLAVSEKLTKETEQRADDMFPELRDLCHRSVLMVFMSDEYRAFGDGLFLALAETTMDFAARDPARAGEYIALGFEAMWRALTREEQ

As to `COc1ccc(CNCCc2ccc(O)cc2)cc1O` [4NB, 4-O'Methylnorbelladine], the increase in fluorescence on RamR was 3.8 fold. Besides, the 4NB2.1 biosensor measurement at 4NB2.1 biosensor (1 uM 4NB supplemented into media) stood at 200.81 RFU/OD; on 4NB2.1 biosensor (2.5 uM 4NB supplemented into media) it was 240.62 RFU/OD; at 4NB2.1 biosensor (5 uM 4NB supplemented into media), 395.69 RFU/OD; on 4NB2.1 biosensor (10 uM 4NB supplemented into media), 944.28 RFU/OD; on 4NB2.1 biosensor (25 uM 4NB supplemented into media), 5648.44 RFU/OD; at 4NB2.1 biosensor (50 uM 4NB supplemented into media) it was 21194.72 RFU/OD. In addition, the 4NB2.1 biosensor measurement was determined as 43800.94 RFU/OD at 4NB2.1 biosensor (100 uM 4NB supplemented into media), 64506.12 RFU/OD at 4NB2.1 biosensor (250 uM 4NB supplemented into media), 67029.6 RFU/OD at 4NB2.1 biosensor (500 uM 4NB supplemented into media) and 62040.21 RFU/OD at 4NB2.1 biosensor (1000 uM 4NB supplemented into media). The compound further gave an EC50 at 4NB2.1 biosensor (biosensor developed by directed evolution) of 20 µM.

In the case of `Oc1ccc(CCNCc2ccc(O)c(O)c2)cc1` [norbelladine], on RamR, the increase in fluorescence amounted to 4.4 fold.

Source of the values: US20240336900A1, “METHODS AND COMPOSITIONS RELATED TO MODIFIED METHYLTRANSFERASES AND ENGINEERED BIOSENSORS” (BOARD OF REGENTS, THE UNIVERSITY OF TEXAS SYSTEM, priority 2023, published 2024).
